Consider 19 compounds from US6511978B1, “Pyrrole derivatives useful for farnesyl transferase inhibitors and their preparations” (LG Life Sciences, Ltd., priority 1999, dated 2003).

In test [1] the target is T1, Ras farnesyl transferase (Rattus norvegicus, UniProt Q02293+Q04631).
T1 construct: endogenous in cells; host or cells: Rat2 fibroblasts transformed with C-Harvey-Ras or with the H-Ras/K-Ras polybasic-domain fusion
In words: In vivo (intracellular) Ras farnesylation inhibition in Rat2 cell line expressing C-Harvey-Ras. It is filed as cell-based. Particulars: Rat2 cells expressing C-Harvey-Ras; concentration inhibiting 50% of farnesyl binding; read-out: H-Ras CIC50. In short, it runs like this: (§1)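 Transformed Rat2 fibroblasts treated with compound (1% DMSO) for 4 h, then labelled with [^35S]methionine 150 μCi/ml for 20 h. Ras immunoprecipitated with Y13-259 and resolved on 13.5% SDS-PAGE autoradiography; CIC50 is concentration inhibiting 50% of farnesylated Ras band.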

Test [2] deals with T2, Ras farnesyl transferase (Homo sapiens, UniProt P49354+P49356).
T2 construct: made in house
In words: Ras farnesyl transferase enzyme inhibition, K-Ras substrate (H-Ras fused with polybasic lysine domain of K-Ras). The settings on record: K-Ras substrate (fused protein of H-Ras with polybasic lysine domain of K-Ras); recombinant farnesyl transferase. It is filed as biochemical.

Test [3] concerns the target T2, Ras farnesyl transferase. In words: Ras farnesyl transferase enzyme inhibition, H-Ras substrate. The settings on record: H-Ras substrate protein; recombinant farnesyl transferase; 30 minutes at 37° C. It is filed as biochemical.
Test [4] has as its target T1, Ras farnesyl transferase. In words: In vivo (intracellular) Ras farnesylation inhibition in Rat2 cell line transformed with H-Ras fused with polybasic lysine domain of K-Ras. It is filed as cell-based. Particulars: Rat2 cells transformed with H-Ras/K-Ras polybasic domain fused protein; concentration inhibiting 50% of farnesyl binding; read-out: K-Ras CIC50. The essentials: as §1

Take `O=[N+]([O-])c1cn(Cc2cncn2Cc2ccc(Cl)cc2)cc1-c1cccc2ccccc12` [Example 37, 1-[1-(4-chlorobenzyl)-1H-imidazol-5-ylmethyl]-4-(naphthalen-1-yl)-3-nitro-1H-pyrrole]: the IC50 was over 25 nM on Ras farnesyl transferase [1], under 9.5 nM at Ras farnesyl transferase [2], under 5.7 nM on Ras farnesyl transferase [3] and over 10000 nM at Ras farnesyl transferase [4].
For `O=[N+]([O-])c1cn(Cc2cncn2Cc2ccc(Br)cc2)cc1-c1cccc2ccccc12` [Example 38, 1-[1-(4-bromobenzyl)-1H-imidazol-5-ylmethyl]-4-(naphthalen-1-yl)-3-nitro-1H-pyrrole], the IC50 at Ras farnesyl transferase [1] is over 25 nM; at Ras farnesyl transferase [2], over 30 nM; at Ras farnesyl transferase [3], under 23 nM; on Ras farnesyl transferase [4], over 10000 nM.
On to `O=[N+]([O-])c1cn(Cc2cncn2CCc2ccccc2)cc1-c1cccc2ccccc12` [Example 39, 1-[1-(phenethyl)-1H-imidazol-5-ylmethyl]-4-(naphthalen-1-yl)-3-nitro-1H-pyrrole], for which the IC50 on Ras farnesyl transferase [1] is under 25 nM; at Ras farnesyl transferase [2], under 8.3 nM; at Ras farnesyl transferase [3] it was under 6 nM; at Ras farnesyl transferase [4], over 10000 nM.
For `Cc1ccc(CCn2cncc2Cn2cc(-c3cccc4ccccc34)c([N+](=O)[O-])c2)cc1` [Example 40, 1-[1-(4-methylphenethyl)-1H-imidazol-5-ylmethyl]-4-(naphthalen-1-yl)-3-nitro-1H-pyrrole], the IC50 was over 50 nM on Ras farnesyl transferase [1], over 30 nM at Ras farnesyl transferase [2], under 24 nM on Ras farnesyl transferase [3] and over 10000 nM on Ras farnesyl transferase [4].
Regarding `O=[N+]([O-])c1cn(Cc2cncn2CCc2ccc(Cl)cc2)cc1-c1cccc2ccccc12` [Example 41, 1-[1-(4-chlorophenethyl)-1H-imidazol-5-ylmethyl]-4-(naphthalen-1-yl)-3-nitro-1H-pyrrole], the IC50 at Ras farnesyl transferase [1] is over 50 nM; on Ras farnesyl transferase [2], under 4 nM; on Ras farnesyl transferase [3], under 9 nM; at Ras farnesyl transferase [4], over 10000 nM.
With `O=[N+]([O-])c1cn(Cc2cncn2CCc2ccc(F)cc2)cc1-c1cccc2ccccc12` [Example 42, 1-[1-(4-fluorophenethyl)-1H-imidazol-5-ylmethyl]-4-(naphthalen-1-yl)-3-nitro-1H-pyrrole], the IC50 was over 50 nM on Ras farnesyl transferase [1], under 7.5 nM on Ras farnesyl transferase [2], under 4.15 nM at Ras farnesyl transferase [3] and over 10000 nM on Ras farnesyl transferase [4].
Consider `O=[N+]([O-])c1cn(Cc2cncn2CCc2cccc(Br)c2)cc1-c1cccc2ccccc12` [Example 43, 1-[1-(3-bromophenethyl)-1H-imidazol-5-ylmethyl]-4-(naphthalen-1-yl)-3-nitro-1H-pyrrole], for which the IC50 at Ras farnesyl transferase [1] is over 50 nM; at Ras farnesyl transferase [2], under 13 nM; on Ras farnesyl transferase [3], under 3 nM; on Ras farnesyl transferase [4], over 10000 nM.
Regarding `COc1ccc(CCn2cncc2Cn2cc(-c3cccc4ccccc34)c([N+](=O)[O-])c2)cc1` [Example 44, 1-[1-(4-methoxyphenethyl)-1H-imidazol-5-ylmethyl]-4-(naphthalen-1-yl)-3-nitro-1H-pyrrole], the IC50 is under 25 nM on Ras farnesyl transferase [1], under 15 nM on Ras farnesyl transferase [2], under 11 nM at Ras farnesyl transferase [3] and over 10000 nM at Ras farnesyl transferase [4].
On to `COc1cccc(CCn2cncc2Cn2cc(-c3cccc4ccccc34)c([N+](=O)[O-])c2)c1` [Example 45, 1-[1-(3-methoxyphenethyl)-1H-imidazol-5-ylmethyl]-4-(naphthalen-1-yl)-3-nitro-1H-pyrrole], for which the IC50 at Ras farnesyl transferase [1] is under 25 nM; on Ras farnesyl transferase [2], under 16 nM; at Ras farnesyl transferase [3] it was under 16 nM; at Ras farnesyl transferase [4], over 10000 nM.
In the case of `O=[N+]([O-])c1cn(Cc2cncn2CCc2cccc3ccccc23)cc1-c1cccc2ccccc12` [Example 46, 1-[1-(naphthalen-1-ylethyl)-1H-imidazol-5-ylmethyl]-4-(naphthalen-1-yl)-3-nitro-1H-pyrrole], the IC50 was over 50 nM on Ras farnesyl transferase [1], under 6 nM on Ras farnesyl transferase [2], under 7 nM on Ras farnesyl transferase [3] and over 10000 nM on Ras farnesyl transferase [4].
Take `CCOCCCn1cncc1Cn1cc(-c2cccc3ccccc23)c([N+](=O)[O-])c1` [Example 47, 1-[1-(3-ethoxypropyl)-1H-imidazol-5-ylmethyl]-4-(naphthalen-1-yl)-3-nitro-1H-pyrrole]: the IC50 on Ras farnesyl transferase [1] was under 12.5 nM; at Ras farnesyl transferase [2] it was under 29 nM; on Ras farnesyl transferase [3], under 15 nM; on Ras farnesyl transferase [4], over 10000 nM.
For `Cn1cncc1Cn1cc(-c2cccc3ccccc23)c([N+](=O)[O-])c1` [Example 48, 1-[1-(methyl)-1H-imidazol-5-ylmethyl]-4-(naphthalen-1-yl)-3-nitro-1H-pyrrole], the IC50 is over 50 nM on Ras farnesyl transferase [1], over 30 nM on Ras farnesyl transferase [2], over 30 nM on Ras farnesyl transferase [3] and over 10000 nM at Ras farnesyl transferase [4].
With `O=[N+]([O-])c1cn(Cc2cncn2Cc2ccc3ccccc3c2)cc1-c1cccc2ccccc12` [Example 49, 1-[1-(naphthalen-2-ylmethyl)-1H-imidazol-5-ylmethyl]-4-(naphthalen-1-yl)-3-nitro-1H-pyrrole], the IC50 at Ras farnesyl transferase [1] was over 50 nM; at Ras farnesyl transferase [2], over 30 nM; at Ras farnesyl transferase [3], under 30 nM; at Ras farnesyl transferase [4], over 10000 nM.
The corresponding values for `Nc1cn(Cc2cncn2Cc2ccc(Cl)cc2)cc1-c1cccc2ccccc12` [Example 50, 3-amino-1-[1-(4-chlorobenzyl)-1H-imidazol-5-ylmethyl]-4-(naphthalen-1-yl)-1H-pyrrole] are over 50 nM, over 30 nM, over 30 nM and over 10000 nM.
As for `Cc1ncn(Cc2ccc3c(c2)OCO3)c1Cn1cc(C(=O)N2CCN(C)CC2)c(-c2cc(Br)cc3ccccc23)c1` [Example 51, 4-(3-bromonaphthalen-1-yl)-1-[4-methyl-1-(3,4-methylenedioxybenzyl)-1H-imidazol-5-ylmethyl]-3-(4-methylpiperazin-1-yl)carbonyl-1H-pyrrole], the IC50 was under 10 nM on Ras farnesyl transferase [1], under 30 nM on Ras farnesyl transferase [2], under 10 nM at Ras farnesyl transferase [3] and over 10000 nM at Ras farnesyl transferase [4].
For `Cc1ncn(Cc2ccc3c(c2)OCO3)c1Cn1cc(C(=O)N2CCN(C)CC2)c(-c2cc(Cl)cc3ccccc23)c1` [Example 52, 4-(3-chloronaphthalen-1-yl)-1-[4-methyl-1-(3,4-methylenedioxybenzyl)-1H-imidazol-5-ylmethyl]-3-(4-methylpiperazin-1-yl)carbonyl-1H-pyrrole], the IC50 on Ras farnesyl transferase [1] is under 10 nM; at Ras farnesyl transferase [2] it was under 30 nM; at Ras farnesyl transferase [3], under 10 nM; at Ras farnesyl transferase [4], over 10000 nM.
For the compound `Cc1ncn(Cc2ccc3ccccc3c2)c1Cn1cc(C(=O)N2CCN(C)CC2)c(-c2cc(Br)cc3ccccc23)c1` [Example 53, 4-(3-bromonaphthalen-1-yl)-1-[4-methyl-1-(naphthalen-2-yl)methyl-1H-imidazol-5-ylmethyl]-3-(4-methylpiperazin-1-yl)carbonyl-1H-pyrrole], the IC50 at Ras farnesyl transferase [1] was under 10 nM; at Ras farnesyl transferase [2] it was under 30 nM; on Ras farnesyl transferase [3] it was under 10 nM; at Ras farnesyl transferase [4] it was over 10000 nM.
For `Cc1ncn(Cc2ccc3ccccc3c2)c1Cn1cc(C(=O)N2CCN(C)CC2)c(-c2cc(Cl)cc3ccccc23)c1` [Example 54, 4-(3-chloronaphthalen-1-yl)-1-[4-methyl-1-(naphthalen-2-yl)methyl-1H-imidazol-5-ylmethyl]-3-(4-methylpiperazin-1-yl)carbonyl-1H-pyrrole], the IC50 at Ras farnesyl transferase [1] was under 10 nM; on Ras farnesyl transferase [2], under 30 nM; on Ras farnesyl transferase [3], under 10 nM; on Ras farnesyl transferase [4], over 10000 nM.
With `Cc1ncn(Cc2ccc3ccccc3c2)c1Cn1cc(C(=O)N2CCN(C)CC2)c(-c2cccc3ccccc23)c1` [Example 55, 1-[4-methyl-1-(naphthalen-2-yl)methyl-1H-imidazol-5-ylmethyl]-3-(4-methylpiperazin-1-yl)carbonyl-4-(naphthalen-1-yl)-1H-pyrrole], the IC50 on Ras farnesyl transferase [1] is under 10 nM; at Ras farnesyl transferase [2] it was under 30 nM; at Ras farnesyl transferase [3], under 10 nM; on Ras farnesyl transferase [4] it was over 10000 nM.
